# Experimental data from patent publication US20240400555A1 (Initial Therapeutics, Inc., priority 2023, published 2024).
# Test system: MV-4-11 cells
# Test: Cell Viability Assay in MV-4-11 Cells
# Format: cell-based
# Settings: Homo sapiens, MV4-11, 72 h, MV-4-11 cells, 72 h, Cell-Titer Glo; read-out: IC50
# Outline: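 MV-4-11 cells at 7,000/well in IMDM with 10% FBS, exposed to compound for 72 h. Viability by CellTiter-Glo luminescence, normalized to DMSO as 100%, fitted with a four-parameter curve.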
row,Compound,IC50 [nM]
1,"O=C(c1ccc(-n2nnc3cccnc32)cc1F)N(c1nccc2cnccc12)[C@@H]1CCCNC1 [Example 849, (R)-4-(3H-[1,2,3]triazolo[4,5-b]pyridin-3-yl)-2-fluoro-N-(2,6-naphthyridin-1-yl)-N-(piperidin-3-yl)benzamide]",2600
2,"COCCn1cc(-c2ccc(C(=O)N(c3nccc4cc(F)cc(C)c34)[C@@H]3CCCNC3)c(F)c2)nn1 [Example 850, 2-fluoro-N-(6-fluoro-8-methyl-1-isoquinolyl)-4-[1-(2-methoxyethyl)triazol-4-yl]-N-[(3R)-3-piperidyl]benzamide]",52
3,"COCc1c(-c2ccc(C(=O)N(c3nccc4scc(C)c34)[C@@H]3CCCNC3)c(F)c2)nnn1C [Example 851, 2-fluoro-4-[5-(methoxymethyl)-1-methyl-triazol-4-yl]-N-(3-methylthieno[3,2-c]pyridin-4-yl)-N-[(3R)-3-piperidyl]benzamide]",61
4,"COCCc1nnc(-c2ccc(C(=O)N(c3nccc4cc(F)cc(C)c34)[C@@H]3CCCNC3)c(F)c2)s1 [Example 852, 2-fluoro-N-(6-fluoro-8-methyl-1-isoquinolyl)-4-[5-(2-methoxyethyl)-1,3,4-thiadiazol-2-yl]-N-[(3R)-3-piperidyl]benzamide]",56
5,"COCc1nnc(-c2ccc(C(=O)N(c3nccc4cc(F)cc(C)c34)[C@@H]3CCCNC3)c(F)c2)s1 [Example 853, 2-fluoro-N-(6-fluoro-8-methyl-1-isoquinolyl)-4-[5-(methoxymethyl)-1,3,4-thiadiazol-2-yl]-N-[(3R)-3-piperidyl]benzamide]",55
6,"CCOCc1nnc(-c2ccc(C(=O)N(c3nccc4cc(F)cc(C)c34)[C@@H]3CCCNC3)c(F)c2)s1 [Example 854, 4-[5-(ethoxymethyl)-1,3,4-thiadiazol-2-yl]-2-fluoro-N-(6-fluoro-8-methyl-1-isoquinolyl)-N-[(3R)-3-piperidyl]benzamide]",80
7,"Cc1ccc(Cl)c2ccnc(N(C(=O)c3ccc(-c4cn(C)nn4)cc3)[C@@H]3CCCNC3)c12 [Example 855, N-(5-chloro-8-methyl-1-isoquinolyl)-4-(1-methyltriazol-4-yl)-N-[(3R)-3-piperidyl]benzamide]",420
8,"Cc1nnc(-c2ccc(C(=O)N(c3nccc4c(Cl)ccc(C)c34)[C@@H]3CCCNC3)cc2)s1 [Example 856, N-(5-chloro-8-methyl-1-isoquinolyl)-4-(5-methyl-1,3,4-thiadiazol-2-yl)-N-[(3R)-3-piperidyl]benzamide]",260
9,"Cc1nnc(-c2ccc(C(=O)N(c3nccc4c(Cl)ccc(C)c34)[C@@H]3CCCNC3)nc2)s1 [Example 857, N-(5-chloro-8-methyl-1-isoquinolyl)-5-(5-methyl-1,3,4-thiadiazol-2-yl)-N-[(3R)-3-piperidyl]pyridine-2-carboxamide]",480
10,"COc1cc(C)c2c(N(C(=O)c3ccc(-c4cn(C)nn4)cc3)[C@@H]3CCCNC3)nccc2c1 [Example 858, N-(6-methoxy-8-methyl-1-isoquinolyl)-4-(1-methyltriazol-4-yl)-N-[(3R)-3-piperidyl]benzamide]",55
11,"CCn1cc(-c2ccc(C(=O)N(c3nccc4scc(C)c34)[C@@H]3CCCNC3)cc2)nn1 [Example 859, 4-(1-ethyltriazol-4-yl)-N-(3-methylthieno[3,2-c]pyridin-4-yl)-N-[(3R)-3-piperidyl] benzamide]",100
12,"COc1cc(C)c2c(N(C(=O)c3ccc(-c4nnc(C)s4)cc3F)[C@@H]3CCCNC3)nccc2c1 [Example 860, 2-fluoro-N-(6-methoxy-8-methyl-1-isoquinolyl)-4-(5-methyl-1,3,4-thiadiazol-2-yl)-N-[(3R)-3-piperidyl]benzamide]",48
13,"Cc1ccc(C)c2c(N(C(=O)c3ccc(-c4cn(C)nn4)cc3)[C@@H]3CCCNC3)nccc12 [Example 861, N-(5,8-dimethyl-1-isoquinolyl)-4-(1-methyltriazol-4-yl)-N-[(3R)-3-piperidyl]benzamide]",620
14,"Cc1cc(F)c(F)c2ccnc(N(C(=O)c3ccc(-c4cn(C)nn4)cc3)[C@@H]3CCCNC3)c12 [Example 862, N-(5,6-difluoro-8-methyl-1-isoquinolyl)-4-(1-methyltriazol-4-yl)-N-[(3R)-3-piperidyl]benzamide]",220
15,"CCn1cc(-c2ccc(C(=O)N(c3nccc4cc(OC)cc(C)c34)[C@@H]3CCCNC3)c(F)c2)nn1 [Example 863, 4-(1-ethyltriazol-4-yl)-2-fluoro-N-(6-methoxy-8-methyl-1-isoquinolyl)-N-[(3R)-3-piperidyl] benzamide]",29
16,"COc1cc(C)c2c(N(C(=O)c3ccc(-c4nnc(C)s4)cn3)[C@@H]3CCCNC3)nccc2c1 [Example 864, N-(6-methoxy-8-methyl-1-isoquinolyl)-5-(5-methyl-1,3,4-thiadiazol-2-yl)-N-[(3R)-3-piperidyl]pyridine-2-carboxamide]",130
17,"CCOc1cc(C)c2c(N(C(=O)c3ccc(-c4nnc(C)s4)cn3)[C@@H]3CCCNC3)nccc2c1 [Example 865, N-(6-ethoxy-8-methyl-1-isoquinolyl)-5-(5-methyl-1,3,4-thiadiazol-2-yl)-N-[(3R)-3-piperidyl]pyridine-2-carboxamide]",150

row,Compound,IC50 [nM]
1,"COc1cc(C)c2c(N(C(=O)c3ccc(-c4nnc(C)s4)cc3)[C@@H]3CCCNC3)nccc2c1 [Example 866, N-(6-methoxy-8-methyl-1-isoquinolyl)-4-(5-methyl-1,3,4-thiadiazol-2-yl)-N-[(3R)-3-piperidyl]benzamide]",52
2,"COc1ccc2c(N(C(=O)c3ccc(-c4nnc(C)s4)cn3)[C@@H]3CCCNC3)nccc2c1F [Example 867, N-(5-fluoro-6-methoxy-1-isoquinolyl)-5-(5-methyl-1,3,4-thiadiazol-2-yl)-N-[(3R)-3-piperidyl]pyridine-2-carboxamide]",970
3,"COc1ccc2c(N(C(=O)c3ccc(-c4nnc(C)s4)cc3)[C@@H]3CCCNC3)nccc2c1F [Example 868, N-(5-fluoro-6-methoxy-1-isoquinolyl)-4-(5-methyl-1,3,4-thiadiazol-2-yl)-N-[(3R)-3-piperidyl]benzamide]",760
4,"COc1ccc2c(N(C(=O)c3ccc(-c4cn(C)nn4)cc3)[C@@H]3CCCNC3)nccc2c1Cl [Example 869, N-(5-chloro-6-methoxy-1-isoquinolyl)-4-(1-methyltriazol-4-yl)-N-[(3R)-3-piperidyl]benzamide]",1400
5,"COc1ccc(C)c2c(N(C(=O)c3ccc(-c4nnc(C)s4)cn3)[C@@H]3CCCNC3)nccc12 [Example 870, N-(5-methoxy-8-methyl-1-isoquinolyl)-5-(5-methyl-1,3,4-thiadiazol-2-yl)-N-[(3R)-3-piperidyl]pyridine-2-carboxamide]",1900
6,"COc1ccc(C)c2c(N(C(=O)c3ccc(-c4nnc(C)s4)cc3)[C@@H]3CCCNC3)nccc12 [Example 871, N-(5-methoxy-8-methyl-1-isoquinolyl)-4-(5-methyl-1,3,4-thiadiazol-2-yl)-N-[(3R)-3-piperidyl]benzamide]",720
7,"COc1ccc(C)c2c(N(C(=O)c3ccc(-c4cn(C)nn4)cc3)[C@@H]3CCCNC3)nccc12 [Example 872, N-(5-methoxy-8-methyl-1-isoquinolyl)-4-(1-methyltriazol-4-yl)-N-[(3R)-3-piperidyl]benzamide]",2100
8,"COc1ccc(F)c2c(N(C(=O)c3ccc(-c4cn(C)nn4)cc3)[C@@H]3CCCNC3)nccc12 [Example 873, N-(8-fluoro-5-methoxy-1-isoquinolyl)-4-(1-methyltriazol-4-yl)-N-[(3R)-3-piperidyl] benzamide]",> 5200
9,"COc1c(F)ccc2c(N(C(=O)c3ccc(-c4cn(C)nn4)cc3F)[C@@H]3CCCNC3)nccc12 [Example 874, 2-fluoro-N-(6-fluoro-5-methoxy-1-isoquinolyl)-4-(1-methyltriazol-4-yl)-N-[(3R)-3-piperidyl] benzamide]",4000
10,"COCc1nnc(-c2ccc(C(=O)N(c3nccc4scc(C)c34)[C@@H]3CCCNC3)cc2)s1 [Example 875, 4-[5-(methoxymethyl)-1,3,4-thiadiazol-2-yl]-N-(3-methylthieno[3,2-c]pyridin-4-yl)-N-[(3R)-3-piperidyl]benzamide]",86
11,"COCCCc1nnc(-c2ccc(C(=O)N(c3nccc4scc(C)c34)[C@@H]3CCCNC3)cc2)s1 [Example 876, 4-[5-(3-methoxypropyl)-1,3,4-thiadiazol-2-yl]-N-(3-methylthieno[3,2-c]pyridin-4-yl)-N-[(3R)-3-piperidyl]benzamide]",290
12,"Cc1nnc(-c2ccc(C(=O)N(c3nccc4c(C)ccc(C)c34)[C@@H]3CCCNC3)nc2)s1 [Example 877, N-(5,8-dimethyl-1-isoquinolyl)-5-(5-methyl-1,3,4-thiadiazol-2-yl)-N-[(3R)-3-piperidyl]pyridine-2-carboxamide]",790
13,"Cc1nnc(-c2ccc(C(=O)N(c3nccc4c(C)ccc(C)c34)[C@@H]3CCCNC3)cc2)s1 [Example 878, N-(5,8-dimethyl-1-isoquinolyl)-4-(5-methyl-1,3,4-thiadiazol-2-yl)-N-[(3R)-3-piperidyl]benzamide]",560
14,"Cc1cccc2ccnc(N(C(=O)c3ccc(-c4nnc(CCC#N)s4)cc3F)[C@@H]3CCCNC3)c12 [Example 879, 4-[5-(2-cyanoethyl)-1,3,4-thiadiazol-2-yl]-2-fluoro-N-(8-methyl-1-isoquinolyl)-N-[(3R)-3-piperidyl]benzamide]",110
15,"Cc1cccc2ccnc(N(C(=O)c3ccc(-c4nnc(CCC#N)s4)cc3)[C@@H]3CCCNC3)c12 [Example 880, 4-[5-(2-cyanoethyl)-1,3,4-thiadiazol-2-yl]-N-(8-methyl-1-isoquinolyl)-N-[(3R)-3-piperidyl]benzamide]",180
16,"Cc1csc2ccnc(N(C(=O)c3ccc(-c4cn(CCC#N)nn4)cc3F)[C@@H]3CCCNC3)c12 [Example 881, 4-[1-(2-cyanoethyl)triazol-4-yl]-2-fluoro-N-(3-methylthieno[3,2-c]pyridin-4-yl)-N-[(3R)-3-piperidyl]benzamide]",150
